{
  "source": "patent US20120220535A1",
  "about": "“CYCLIC-GLUR6 ANALOGS, METHODS OF TREATMENT AND USE” (priority 2009, published 2012)",
  "key": {"[1]": {"experiment": "Uptake in the retina after intravitreal injection of fluorescently tagged compound", "assay_type": "in vivo", "from_the_text": "Uptake in the retina was observed as follows. […] In numerous populations of retinal neurons located in both the ganglion cell (GCL) and inner nuclear layers."}, "[2]": {"experiment": "Intrathecal injection in rats, distribution in spinal cord and brain", "assay_type": "in vivo", "method": "Intrathecal injection of Structure 1 compound in rats was tested. Rats were prepped for intrathecal injection containing 16 nmol of Structure 1 compound at the level of CV2. 24 hrs following the injection the rats were perfused with 4% PFA and frozen cross-sections of the cord were mounted on glass slides and photographed."}, "ischemic episode": {"tested_on": "ischemic episode", "experiment": "Therapeutic protocol in stroke (Example 2)", "assay_type": "in vivo, human", "details": "50 mg/Kg i.v. within 2 hours of onset; outcome within 48 hours; person", "method": "A person presents with an ischemic episode resulting sudden numbness the face, and left arm, confusion, and trouble speaking. […] Doses of from about 1 to about 100 mg/Kg are noted."}, "hippocampal neurons": {"tested_on": "hippocampal neurons", "experiment": "Excitotoxic insult in hippocampal neurons (loss of functional activity)", "assay_type": "cell-based", "details": "co-application with excitotoxic insult", "from_the_text": "This loss was prevented by the co-application of the compound of Structure 1. Results were confirmatory of the retinal data and extends it into tissues that are more strongly associated with CNS disorders such as Stroke and neurodegenerative diseases. Noted is therapeutic treatment for autism disorders and cognitive decline symptomatology conditions."}, "[3]": {"tested_on": "acute slices of rat retinal and brain tissue", "experiment": "Multi-electrode array electrophysiological screen for neuroprotection against kainate- or NMDA-induced death", "assay_type": "cell-based", "details": "30 uM; pretreatment, or cotreatment with an NMDA receptor agonist; slices perfused about 30 min with NMDA or kainate agonists", "from_the_text": "One aspect of the present invention usefully employs electrophysiological screening of Structure 1. Particular attention is drawn to an electrophysiological assay that rapidly screens for compounds which are inhibitors that target neuron-specific PDZ domains. Recordings of cellular activity were made from acute slices of rat retinal and brain tissue to examine the effects of Structure 1 on synaptic Kainate/AMPA, NMDARs and to test for protection against excitotoxic insults. Kainate/AMPA and NMDAR components were distinguished pharmacologically. Noted are the selective AMPA-antagonist NBQX and the competitive NMDA-antagonist CPP. A multi-electrode array was used that enabled examination of activity from sixty neurons simultaneously. This array addressed whether a test compound provided neuroprotection against kainate or N-methyl-D-aspartic acid (NMDA)-induced death. Briefly, slices were perfused for prolonged periods (about 30 min) with NMDA or kainate agonists until activity in half of the neurons is lost and responses cannot be rescued by washing out the NMDA or kainate (assumed to be resulting from neuronal death)."}, "[4]": {"details": "rats, 16 nmol intrathecal at CV2, 24 hrs after injection"}},
  "note": "Entries after “also recorded” stand apart in the source; their conditions may differ.",
  "data": [
    {"substance": "CONH2-(Arg)7-Cys-Cys-Lys-Asn-Tyr-Lys-c[-Lys-Thr-Glu(βAla)Val [Structure 1]", "values": [
      {"measurement": "uptake pattern in retina", "setting": "[1]; 1.5-6 nmol, 6 hrs following intravitreal injection", "result": "~50", "unit": "%"},
      {"measurement": "accumulation within ganglion cell axons", "setting": "[1]; intravitreal injection, labeling at the optic nerve head", "result": "selectively accumulated within ganglion cell axons"},
      {"measurement": "crossing of vitreal/retina barrier", "setting": "[1]; tagged with a fluorescent marker, administered intravitrealy", "result": "crossed the vitreal/retina barrier"},
      {"measurement": "accumulation in brain regions after cervical intrathecal injection", "setting": "[2]; [4]", "result": "accumulate in cells located in the cortex, hippocampus, brainstem and striatum"},
      {"measurement": "crossing of pia mater/brain barrier and accumulation in spinal cord neurons", "setting": "[2]; [4]", "result": "crosses the pia mater/brain barrier and selectively accumulates in neurons located within the gray matter of the cord"},
      {"measurement": "crossing of pia mater/brain barrier", "setting": "[2]; tagged with a fluorescent marker, localizes in neurons within retina, spinal cord and brain", "result": "readily cross the pia mater/brain barrier"},
      {"measurement": "patient outcome after ischemic episode", "setting": "ischemic episode", "result": "recovers without significant brain damage"},
      {"measurement": "permanent loss of functional activity after excitotoxic insult", "setting": "hippocampal neurons", "result": "prevented"},
      {"measurement": "prevention of neuronal death / cell death", "setting": "[3]", "result": "provided efficacy and potency in preventing neuronal death; also recorded: prevented cell death"}
    ]}
  ]
}
